We go through five molecules from patent publication US20220257593A1, “CARABACHOL-BROMONIDINE FORMULATION TO ENHANCE ANTI-PRESBYOPIA EFFECTS” (Visus Therapeutics, Inc., priority 2019, published 2022).

Values joined by “and” are separate entries in the source; they are usually repeats but may differ in a detail not shown here. Identical values can stand only once. “Also recorded” adds a separate entry of the source. Like-named read-outs stand apart in the source and are kept apart here. A value given as a limit tells only on which side of the number the result lay.

Data set [1] deals with emmetropic and presbyopic subjects, non-dominant eye. Kind of data set: Examples 7 and 13 crossover trial: near visual acuity, combined vs separate 3% carbachol and 0.2% brimonidine, carbachol alone, brimonidine alone. The following applies: for NVA (mean near visual acuity): mean ± SD, ten subjects, pre-treatment 8.6 ± 1.5. The class given is in vivo, human. The protocol:
Participants were volunteers selected at random.
(§1) A prospective, double-masked, randomized, controlled clinical trial was conducted.
Participants were randomly selected volunteers.
(§2) The 3% carbachol drops included 50 ppm of benzalkonium chloride.

For data set [2] the test system is unchanged. Briefly: Examples 7 and 13 crossover trial: pupil size (Colvard infrared pupilometer). The format is in vivo, human. The settings on record: for PS (mean pupil size): mean ± SD, ten subjects, pre-treatment 4.3 ± 0.5. The protocol:
as §1, §2

Data set [3] concerns presbyopic subjects. The following applies: subjects receiving brimonidine drops.
For data set [4], the system named is emmetropic, myopic and hyperopic presbyopes.
Data set [5] has as its system presbyopic subjects, non-dominant eye. Kind of data set: Example 8 dose range studies of carbachol and pilocarpine with and without brimonidine: near visual acuity (LogMAR) and pupil diameter. The class given is in vivo, human. The settings on record: for change in LogMAR VA, pilocarpine vs carbachol, each plus 0.2% brimonidine: FIGS. 12 and 13. The protocol:
Dose range studies were performed for carbachol and pilocarpine. […] Pilocarpine and carbachol were also compared to each other, with and without brimonidine.

The test system of data set [6] is presbyopic subjects. Briefly: Example 8 dose range studies: tolerability, adverse symptoms and satisfaction survey. An excerpt: Both Groups 1 and 2 received the same pre- and post-treatment work-up and measurements: Age, gender, initial pupil size, and near vision acuity (NVA) were documented.
The survey asked the patients whether they would use the drops again.

Data set [7] in a line: Example 8: stability of pilocarpine at neutral pH. The format is physicochemical. The settings on record: needs about pH 5.
For data set [8] the following is noted: FDA product insert for isoptocarpine; cited from earlier work.

Take `C[N+](C)(C)CCOC(N)=O` [3% carbachol alone, carbachol]: the “NVA (mean near visual acuity)” value in data set [1] (1-h post-treatment) came to 5.5 ± 1 J; in data set [1] (2-h post-treatment), 5.9 ± 0.8 J; in data set [1] (4-h post-treatment), 7 ± 1.2 J; in data set [1] (8-h post-treatment) it was 7.5 ± 1 J. The “mean near visual acuity (NVA)” value stood at 5.5 ± 1 J in data set [1] (1 h post-treatment, before treatment J 8.6±1.5, 10 subjects crossover); 5.9 ± 0.8 J in data set [1] (2 h post-treatment); 7 ± 1.2 J in data set [1] (4 h post-treatment); 7.5 ± 1 J in data set [1] (8 h post-treatment). In addition, the “hours in which mean near visual acuity (NVA) was ≥20/40” value in data set [1] (emmetropic presbyopes, FIG. 25) was “never achieved an NVA of ≥20/40”. The “PS (mean pupil size)” value in data set [2] (1-h post-treatment) came to 2.8 ± 0.3 mm; in data set [2] (2-h post-treatment), 3 ± 0.3 mm; in data set [2] (4-h post-treatment), 3.5 ± 0.3 mm; in data set [2] (8-h post-treatment), 4 ± 0.3 mm. In addition, the “mean pupil size (PS)” value is reported as 2.8±0.3 mm in data set [2] (1 h post-treatment, before treatment 4.3±0.5 mm); 3±0.3 mm in data set [2] (2 h post-treatment); 3.5±0.3 mm in data set [2] (4 h post-treatment); 4±0.3 mm in data set [2] (8 h post-treatment). Further, the “hours in which mean pupil size reached the target pupil size of <2.5 mm” value in data set [2] (emmetropic presbyopes, FIG. 24) is recorded as “never achieved the target pupil size during hours 1-8”.
For `Brc1c(NC2=NCCN2)ccc2nccnc12` [Brimonidine 0.2%, brimonidine], the “mild burning sensation, number of subjects” value in data set [3] came to 10 subjects. For the same molecule, the “difference in mean NVA before treatment and at any time point after treatment” value in data set [4] (Group 1 emmetropic presbyopes) is given as “No statistically significant difference in mean NVA”; in data set [4] (Group 2 myopic presbyopes), “No statistically significant difference in mean NVA”; in data set [4] (Group 3 hyperopic presbyopes), “No statistically significant difference in mean NVA”; in data set [1] (P >0.05), “no statistically significant difference”. In addition, the “synergy with carbachol and pilocarpine” value in data set [5] (0.2% brimonidine) was “synergistic with both carbachol and pilocarpine”. The “NVA (mean near visual acuity)” value in data set [1] (1-h post-treatment) amounted to 7.7 ± 1.3 J; in data set [1] (2-h post-treatment), 8.2 ± 1.3 J; in data set [1] (4-h post-treatment), 8.5 ± 1.4 J; in data set [1] (8-h post-treatment), 8.6 ± 1.5 J. In data set [1] (over eight hours), the “mean change / improvement in near visual acuity compared among combination, separate drops, carbachol alone, brimonidine alone” value is on record as “the least”. The “PS (mean pupil size)” value amounted to 3.95 ± 0.5 mm in data set [2] (1-h post-treatment), 4.2 ± 0.4 mm in data set [2] (2-h post-treatment), 4.3 ± 0.5 mm in data set [2] (4-h post-treatment) and 4.3 ± 0.5 mm in data set [2] (8-h post-treatment). In addition, the “effect on pupil size or NVA” value in data set [2] (50 ppm benzalkonium chloride) is “virtually no effect”. Moreover, in data set [2] (P >0.05), the “difference in mean PS before treatment and at any time point after treatment” value is on record as “no statistically significant difference”. Further, in data set [2] (first hour after instillation, light luminance conditions, not significant (P >0.05)), the miotic effect result is “mild miotic effect”.
`CC[C@@H]1C(=O)OC[C@@H]1Cc1cncn1C` [Pilo Alone]: in data set [5] (Pilo 0.5%, individual patients), the “Pilo Alone 1 hr nVA” value was 3 J and 6 J and 5 J; the “Pilo Alone 1 hr pupil” value is 3.8 and 3 (2×); the “Pilo Alone 2 hrs nVA” value was 5 J (2×) and 3 J (2×); the “Pilo Alone 2 hrs pupil” value was 3 and 4 and 2.5 and 3.3. Besides, in data set [5] (Pilo 0.5%, individual patients), the “Pilo Alone 4 hrs nVA” value was 5 J (3×) and 3 J; the “Pilo Alone 4 hrs pupil” value was 3.3 and 4 and 3 and 4.2. Also, in data set [5] (Pilo 1%, individual patients), the “Pilo Alone 1 hr nVA” value is 3 J (2×) and 2 J and 8 J; the “Pilo Alone 1 hr pupil” value is 2.5 (2×) and 1.5 and 3; the “Pilo Alone 2 hrs nVA” value is 3 J and 2 J (2×) and 8 J; the “Pilo Alone 2 hrs pupil” value is 3 (2×) and 1.5 and 2.5. Further, in data set [5] (Pilo 1%, individual patients), the “Pilo Alone 4 hrs nVA” value is 5 J (2×) and 3 J and 10 J; the “Pilo Alone 4 hrs pupil” value is 4 (2×) and 2.5 and 3. For the same molecule, in data set [5] (Pilo .05%, patient 5), the “Pilo Alone 1 hr nVA” value stood at 3 J and the “Pilo Alone 1 hr pupil” value was found to be 2.5. The “Pilo Alone 4 hrs pupil” value in data set [5] (Pilo […], individual patients) came out at 4.
Take `C[N+](C)(C)CCOC(N)=O` [carbachol, reference compound]: the “dose response for tolerability” value in data set [6] (carbachol […], […], 3% plus brimonidine, seven days, FIG. 15) is on record as “An inverse dose response”. Further, the “change in LogMAR VA, pilocarpine vs carbachol, each plus 0.2% brimonidine” value in data set [5] was “favored carbachol for hours 8 and 10”. In data set [5] (in vivo), the duration of effect was 8 h.
For the molecule `CC[C@@H]1C(=O)OC[C@@H]1Cc1cncn1C` [pilocarpine, reference compound], the burning entry in data set [6] (in vivo) was “burned”. In addition, the “change in LogMAR VA, pilocarpine vs carbachol, each plus 0.2% brimonidine” value in data set [5] is “favored pilocarpine for hours 1 and 2”. Moreover, in data set [5] (compared with carbachol), the “onset and duration of effect” value is on record as “more immediate effect; also recorded: shorter duration”. Also, the “stability at neutral pH” value in data set [7] was “unstable at neutral pH”. For the same molecule, in data set [8], the brow ache rate was greater than 5%.
